Data as given in ChEMBL document CHEMBL3784964, “Targeting the trehalose utilization pathways of Mycobacterium tuberculosis” (Medchemcomm, 2016).
Values after ≈ are worked out from the molar mass of the structure shown.

How the values were obtained:
[1] = test system: Mycobacterium tuberculosis; experiment: Antimycobacterial activity against Mycobacterium tuberculosis H37Rv; format: functional
[2] = test system: Mycobacterium tuberculosis; experiment: Antimycobacterial activity against Mycobacterium tuberculosis incubated for 96 hrs by resazurin microtiter assay; format: functional
[3] = test system: Mycobacterium tuberculosis; experiment: Inhibition of Mycobacterium tuberculosis antigen 85C mycolyltransferase activity at 100 ug/ml incubated for 30 mins by scintillation counting method in presence of [14C]-trehalose relative to control
[4] = test system: Mycobacterium tuberculosis; experiment: Antimycobacterial activity against Mycobacterium tuberculosis H37Rv by microdilution method; format: functional
[5] = test system: Mycobacterium tuberculosis; experiment: Antimycobacterial activity against Mycobacterium tuberculosis H37Ra ATCC 25177; format: functional
[6] = Competitive inhibition of recombinant Mycobacterium smegmatis trehalose synthase using DNPGlc as substrate by Dixon plot analysis; parameters: species or system Mycolicibacterium smegmatis
[7] = Inhibition of Mycobacterium tuberculosis antigen 85C acyltransferase activity preincubated with enzyme by UV-vis spectrophotometric analysis
[8] = test system: Mycobacterium tuberculosis; experiment: Antimycobacterial activity against Mycobacterium tuberculosis H37Rv by 2-fold broth dilution method; format: functional
[9] = Inhibition of Mycobacterium tuberculosis antigen 85C mycolyltransferase activity incubated for 30 mins by scintillation counting method in presence of [14C]-trehalose
[10] = Inhibition of Mycobacterium tuberculosis antigen 85C mycolyltransferase activity using trehalose as substrate measured every 20 sec for 30 mins by 4-methylumbelliferyl butyrate fluorescence assay
[11] = Inhibition of recombinant Mycobacterium tuberculosis H37Rv N-terminal His-tagged glgE expressed in Escherichia coli T7 Rosetta cells using MESG as substrate measured every 5 sec for 10 mins by PNP enzyme coupled assay
[12] = test system: Mycobacterium tuberculosis; experiment: Antimycobacterial activity against Mycobacterium tuberculosis H37Rv mc26206 incubated for 96 hrs by resazurin microtiter assay; format: functional; conditions: H37Rv mc26206, 96 h

Structure (SMILES): CCCn1cnc2cc(NCc3ccc(Cl)cc3Cl)ccc21
- MIC [1]: 16 µM

Structure (SMILES): CCCC1CCc2c(sc(N)c2C#N)C1 (stereo not drawn)
- MIC [2]: 100 µM (≈ 22 µg/mL)

Structure (SMILES): O=C(Nc1ccc(F)c(F)c1F)NC12CC3CC(CC(C3)C1)C2
- MIC [1]: 0.5 µg/mL

Structure (SMILES): CN1CCN(Cc2cc(-c3ccc(Cl)cc3)n(-c3ccc(Cl)cc3)c2-c2ccccc2)CC1
- MIC [1]: 1.5 µg/mL

Structure (SMILES): [N-]=[N+]=NC[C@H]1O[C@H](O[C@H]2O[C@H](CO)[C@@H](O)[C@H](O)[C@H]2O)[C@H](O)[C@@H](O)[C@@H]1O
- inhibition [3]: 60%

Structure (SMILES): COC(=O)c1c(NC(=O)c2c(F)c(F)c(F)c(F)c2F)sc2c1CCCCC2
- MIC [4]: 1 µM (≈ 0.419 µg/mL)

Structure (SMILES): CCc1sc(NC(=O)c2c(F)c(F)c(F)c(F)c2F)c(C(=O)OC(C)C)c1C
- MIC [4]: 1 µM (≈ 0.421 µg/mL)

Structure (SMILES): CCCCCCCCNC[C@H]1O[C@H](O[C@H]2O[C@H](CNCCCCCCCC)[C@@H](O)[C@H](O)[C@H]2O)[C@H](O)[C@@H](O)[C@@H]1O
- MIC [5]: 4 µg/mL (≈ 7.08 µM)

Structure (SMILES): OC[C@@H]1[C@@H](O)[C@H](O)C2[C@H](O)[C@@H](O)CN21 (stereo partly drawn)
- Ki [6]: 2.5 µM

Structure (SMILES): OC[C@H]1NC[C@H](O)[C@@H](O)[C@@H]1O [DUVOGLUSTAT]
- Ki [6]: 0.25 µM

Structure (SMILES): CCCCCCCCCCCCNC[C@H]1O[C@H](O[C@H]2O[C@H](CNCCCCCCCCCCCC)[C@@H](O)[C@H](O)[C@H]2O)[C@H](O)[C@@H](O)[C@@H]1O
- MIC [5]: 8 µg/mL (≈ 11.8 µM)

Structure (SMILES): CCCCCCCCCCNC[C@H]1O[C@H](O[C@H]2O[C@H](CNCCCCCCCCCC)[C@@H](O)[C@H](O)[C@H]2O)[C@H](O)[C@@H](O)[C@@H]1O
- MIC [5]: 1.3 µg/mL (≈ 2.09 µM)

Structure (SMILES): COC(=O)CC[C@H]1O[C@@H](OC)[C@@H](O)[C@@H]1O
- IC50 [7]: 25000 µM

Structure (SMILES): CC(C)=CCC/C(C)=C/CNCCNC1C2CC3CC(C2)CC1C3 (stereo not drawn) [SQ109]
- MIC [8]: 1.5 µg/mL (≈ 4.54 µM)

Structure (SMILES): CCOC(=O)c1c(NC(=O)c2c(F)c(F)c(F)c(F)c2F)sc(C(N)=O)c1C
- MIC [4]: 0.5 µM (≈ 0.211 µg/mL)

Structure (SMILES): CCCCCCCCS(=O)(=O)NC[C@H]1O[C@H](O[C@H]2O[C@H](CNS(=O)(=O)CCCCCCCC)[C@@H](O)[C@H](O)[C@H]2O)[C@H](O)[C@@H](O)[C@@H]1O
- MIC [5]: 16 µg/mL (≈ 23.1 µM)

Structure (SMILES): c1ccc(CNC23CC4CC(CC(C4)C2)C3)cc1
- MIC [4]: 10 µM (≈ 2.41 µg/mL)

Structure (SMILES): CCCCCCCCS(=O)(=O)OCCN1C(=O)c2ccccc2C1=O
- IC50 [9]: 4.3 µM

Structure (SMILES): CCOC(=O)c1c(NC(=O)SC[C@H]2O[C@@H](O)[C@@H](O)[C@@H]2O)sc2c1CCCC2
- Ki [10]: 18.2 µM

Structure (SMILES): OC[C@H]1N[C@H](CO)[C@@H](O[C@H]2O[C@H](CO)[C@@H](O)[C@H](O)[C@H]2O)[C@@H]1O
- Ki [11]: 237 µM

Structure (SMILES): O=C(Nc1ccccc1)O/N=C1\N[C@H](CO)[C@@H](O)[C@H](O)[C@H]1O
- Ki [6]: 2.1 µM

Structure (SMILES): CCCCC(CC)CNC[C@H]1O[C@H](O[C@H]2O[C@H](CNCC(CC)CCCC)[C@@H](O)[C@H](O)[C@H]2O)[C@H](O)[C@@H](O)[C@@H]1O (stereo partly drawn)
- MIC [5]: 32 µg/mL (≈ 56.7 µM)

Structure (SMILES): O=c1c2ccccc2[se]n1-c1ccccc1 [EBSELEN]
- MIC [12]: 20 µg/mL (≈ 72.9 µM)
